Patent US10604528B2, “Galunisertib crystalline form, preparation method thereof and use thereof” (Crystal Pharmaceutical (Suzhou) Co., Ltd., priority 2016, dated 2020)
In brackets after ≈: the same amount, converted by molar mass. Entries after “also recorded” stand apart in the source; their conditions may differ. Like-named read-outs stand apart in the source and are kept apart here.

How the values were obtained:
Format in all cases: physicochemical
[1] = Mechanical stability (manual grinding, XRPD); conditions: ground manually for 5 minutes in mortar
Procedure: Solid sample of Form A of the present disclosure was ground manually for 5 minutes in mortar. The XRPD pattern overlay of the solids before and after grinding is substantially as depicted in FIG. 9 (top: XRPD pattern before grinding, bottom: XRPD pattern after grinding).

[2] = Particle size distribution (laser particle size analyzer, wet process)
Procedure: The particle size distribution test in the present disclosure is acquired by the S3500 laser particle size analyzer of Microtrac. Microtrac S3500 is equipped with the SDC (Sample Delivery Controller). The test is carried out by wet process, and the dispersion medium is Isopar G. The parameters are as follow: […]

[3] = Hygroscopicity by dynamic vapor sorption (DVS); conditions: for Hygroscopicity class / Weight gain at 80% RH: 80% RH; for Hygroscopicity class: Chinese Pharmacopoeia 2015 definition; for Weight gain at 80% RH / Weight gain at 95% RH: DVS
Procedure: Dynamic vapor sorption (DVS) was applied to test hygroscopicity of Form A and Form 1 disclosed in WO2007018818A1 with about 10 mg of samples.
Description and definition of hygroscopicity (Chinese Pharmacopoeia 2015 edition, 9103 General drug hygroscopic test guidelines, test at 25° C.±1° C., 80% RH).

[4] = Kinetic solubility in FaSSIF, FeSSIF and water (HPLC)
Procedure: Form A of the present disclosure and Form 1 of the prior art were suspended into FaSSIF (Fasted state simulated intestinal fluids, pH=6.5), FeSSIF (Fed state simulated intestinal fluids, pH=5.0), SGF (Simulated gastric fluids, pH=1.8) and water to get saturated solutions. After equilibrated for 1 h, 4 h and 24 h, concentrations of the saturated solutions were measured by HPLC.

[5] = Long-term and accelerated solid-state stability (XRPD)
Procedure: Solid samples of Form A and Form 1 were stored under different conditions of 25° C./60% RH, 40° C./75% RH. 60° C./75% RH and 80° C.

Row | Compound | D10 ([2]; ultrasonication time 0 s) | D50 ([2]; ultrasonication time 0 s) | D90 ([2]; ultrasonication time 0 s) | MV (average particle size calculated by volume) ([2]; ultrasonication time 0 s) | D10 ([2]; ultrasonication time 30 s) | D50 ([2]; ultrasonication time 30 s) | D90 ([2]; ultrasonication time 30 s) | MV (average particle size calculated by volume) ([2]; ultrasonication time 30 s) | D10 ([2]; ultrasonication time 60 s) | D50 ([2]; ultrasonication time 60 s) | D90 ([2]; ultrasonication time 60 s) | MV (average particle size calculated by volume) ([2]; ultrasonication time 60 s) | D10 ([2]; ultrasonication time 90 s) | D50 ([2]; ultrasonication time 90 s) | D90 ([2]; ultrasonication time 90 s) | MV (average particle size calculated by volume) ([2]; ultrasonication time 90 s) | Hygroscopicity class [3] | Weight gain at 80% RH [3] | Weight gain at 95% RH [3] | solubility ([4]; FaSSIF pH=6.5, 1 h) | other results
1 | Cc1cccc(-c2nn3c(c2-c2ccnc4ccc(C(N)=O)cc24)CCC3)n1 [Form A, 2-(6-methyl-pyridin-2-yl)-3-[6-amido-quinolin-4-yl)-5,6-dihydro-4H-pyrrolo[1,2-b]pyrazole] | 50.28 μm | 170.3 μm | 356.4 μm | 190.8 μm | 34.37 μm | 106.2 μm | 210.5 μm | 116.1 μm | 29.37 μm | 92.81 μm | 192.2 μm | 104.1 μm | 26.40 μm | 83.69 μm | 167.2 μm | 91.94 μm | non-hygroscopic or almost non-hygroscopic | 0.15% | 0.23% | 230 µg/mL (≈ 623 µM) | Crystalline form (XRPD pattern) after grinding [1]: doesn't change significantly; also recorded: No form change; Solid Form after DVS test ([3]; XRPD after DVS test): does not change after DVS test; also recorded: Form A (no change); solubility ([4]; FaSSIF pH=6.5, 4 h): 270 µg/mL (≈ 731 µM); solubility ([4]; FaSSIF pH=6.5, 24 h): 520 µg/mL (≈ 1410 µM); solubility relative to Form 1 ([4]; FaSSIF pH=6.5, 24 h): ten times higher than that of Form 1; solubility ([4]; FeSSIF pH=5.0, 1 h): 480 µg/mL (≈ 1300 µM); solubility ([4]; FeSSIF pH=5.0, 4 h): 820 µg/mL (≈ 2220 µM); solubility ([4]; FeSSIF pH=5.0, 24 h): 640 µg/mL (≈ 1730 µM); solubility ([4]; H2O, 1 h): 170 µg/mL (≈ 460 µM); solubility ([4]; H2O, 4 h): 250 µg/mL (≈ 677 µM); solubility ([4]; H2O, 24 h): 310 µg/mL (≈ 839 µM); Time the form keeps stable ([5]; 25° C./60% RH and 40° C./75% RH): at least 12 months; Solid form after storage ([5]; 25° C./60% RH, 12 months): Form A; Solid form after storage ([5]; 40° C./75% RH, 12 months): No form change; also recorded: Form A; Time the form keeps stable ([5]; 60° C./75% RH and 80° C.): at least 2 weeks; Solid form after storage ([5]; 60° C./75% RH, 2 weeks): Form A; Solid form after storage ([5]; 80° C., 2 weeks): Form A
2 | Cc1cccc(-c2nn3c(c2-c2ccnc4ccc(C(N)=O)cc24)CCC3)n1 [Form 1, 2-(6-methyl-pyridin-2-yl)-3-[6-amido-quinolin-4-yl)-5,6-dihydro-4H-pyrrolo[1,2-b]pyrazole, reference compound] | 33.41 μm | 56.97 μm | 95.11 μm | 62.25 μm | 24.89 μm | 42.56 μm | 68.40 μm | 45.75 μm | 22.40 μm | 37.88 μm | 59.87 μm | 40.41 μm | 20.94 μm | 35.58 μm | 55.95 μm | 37.83 μm | slightly hygroscopic | 0.33% | 0.53% | 58 µg/mL (≈ 157 µM) | solubility ([4]; FaSSIF and water, pH 6.5, fassif, thermodynamic from solid, in both FaSSIF and H2O, all sampling points, read-out: solubility): < 60 µg/mL; solubility ([4]; FaSSIF pH=6.5, 4 h): 51 µg/mL (≈ 138 µM); solubility ([4]; FaSSIF pH=6.5, 24 h): 52 µg/mL (≈ 141 µM); solubility ([4]; FeSSIF pH=5.0, 1 h): 120 µg/mL (≈ 325 µM); solubility ([4]; FeSSIF pH=5.0, 4 h): 110 µg/mL (≈ 298 µM); solubility ([4]; FeSSIF pH=5.0, 24 h): 120 µg/mL (≈ 325 µM); solubility ([4]; H2O, 1 h): 56 µg/mL (≈ 152 µM); solubility ([4]; H2O, 4 h): 55 µg/mL (≈ 149 µM); solubility ([4]; H2O, 24 h): 55 µg/mL (≈ 149 µM); Solid form after storage ([5]; 25° C./60% RH, 12 months): Form 1; Solid form after storage ([5]; 40° C./75% RH, 12 months): Form 1; Solid form after storage ([5]; 60° C./75% RH, 2 weeks): Form 1; Solid form after storage ([5]; 80° C., 2 weeks): partially converts to Form A; also recorded: Form 1 + Form A
